Results as given in patent publication US9296725B2, “Heterocyclyl pyrimidine analogues as TYK2 inhibitors” (Cellzome Limited, priority 2012, dated 2016).
Where two headings read alike, the source gives them in different places.

Experiments:
TYK2 = target: T1, TYK2 (Homo sapiens, UniProt P29597); experiment: Kinobeads assay, TYK2 (competition binding in mixed Molt4/Ramos cell lysate, dot blot detection)
T1 construct: endogenous in cells; host or cells: Molt4 (ATCC CRL-1582) and Ramos (ATCC CRL-1596), mixed lysate 1:2
T1 sequence (P29597 whole entry): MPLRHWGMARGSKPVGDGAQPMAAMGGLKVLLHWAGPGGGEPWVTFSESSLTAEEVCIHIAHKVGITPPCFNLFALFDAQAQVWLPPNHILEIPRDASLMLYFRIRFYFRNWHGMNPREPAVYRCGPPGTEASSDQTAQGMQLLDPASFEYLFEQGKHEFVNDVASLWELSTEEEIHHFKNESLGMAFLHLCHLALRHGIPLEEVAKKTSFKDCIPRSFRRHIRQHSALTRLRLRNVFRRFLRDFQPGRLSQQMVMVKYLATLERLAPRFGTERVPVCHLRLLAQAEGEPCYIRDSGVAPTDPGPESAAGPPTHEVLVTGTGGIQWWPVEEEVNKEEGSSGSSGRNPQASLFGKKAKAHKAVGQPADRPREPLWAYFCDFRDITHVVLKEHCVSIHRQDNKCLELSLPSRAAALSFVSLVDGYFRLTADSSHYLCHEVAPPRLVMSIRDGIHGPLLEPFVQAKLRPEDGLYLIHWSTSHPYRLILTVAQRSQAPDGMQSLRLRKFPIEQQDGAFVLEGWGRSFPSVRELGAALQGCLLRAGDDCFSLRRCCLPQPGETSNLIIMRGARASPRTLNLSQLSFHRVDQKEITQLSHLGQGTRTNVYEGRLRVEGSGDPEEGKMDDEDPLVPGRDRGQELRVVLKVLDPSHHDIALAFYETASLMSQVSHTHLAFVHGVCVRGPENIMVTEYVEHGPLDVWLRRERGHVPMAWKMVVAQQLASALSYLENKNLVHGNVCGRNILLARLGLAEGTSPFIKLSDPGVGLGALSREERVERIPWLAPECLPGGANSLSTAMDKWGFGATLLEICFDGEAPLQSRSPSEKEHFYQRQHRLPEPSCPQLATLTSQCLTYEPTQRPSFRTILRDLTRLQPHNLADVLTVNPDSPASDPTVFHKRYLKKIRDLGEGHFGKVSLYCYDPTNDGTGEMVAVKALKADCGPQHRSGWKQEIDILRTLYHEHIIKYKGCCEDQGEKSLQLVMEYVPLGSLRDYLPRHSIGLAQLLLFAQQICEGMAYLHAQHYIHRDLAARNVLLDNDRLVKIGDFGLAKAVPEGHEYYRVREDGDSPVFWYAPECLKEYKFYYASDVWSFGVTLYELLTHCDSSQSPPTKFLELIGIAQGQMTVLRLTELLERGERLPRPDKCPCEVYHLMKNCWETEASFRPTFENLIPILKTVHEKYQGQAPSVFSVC
In short: (§1)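 Competition binding: compound dilutions (1:3 series, 9 steps) plus immobilized aminopyrido-pyrimidine beads incubated 3 h in the cold with mixed Molt4/Ramos lysate (1:2) at 10 mg/mL protein. Bead-bound JAK2/TYK2 eluted and quantified by antibody dot blot with infrared detection; IC50 from dose-response curves.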

JAK2 = target: T2, JAK2 (Homo sapiens, UniProt O60674); experiment: Kinobeads assay, JAK2 (competition binding in mixed Molt4/Ramos cell lysate, dot blot detection); conditions: read-out: JAK2 Band (Kinobeads assay potency, IC50)
T2 construct: endogenous in cells; host or cells: Molt4 (ATCC CRL-1582) and Ramos (ATCC CRL-1596), mixed lysate 1:2
T2 sequence (O60674 whole entry): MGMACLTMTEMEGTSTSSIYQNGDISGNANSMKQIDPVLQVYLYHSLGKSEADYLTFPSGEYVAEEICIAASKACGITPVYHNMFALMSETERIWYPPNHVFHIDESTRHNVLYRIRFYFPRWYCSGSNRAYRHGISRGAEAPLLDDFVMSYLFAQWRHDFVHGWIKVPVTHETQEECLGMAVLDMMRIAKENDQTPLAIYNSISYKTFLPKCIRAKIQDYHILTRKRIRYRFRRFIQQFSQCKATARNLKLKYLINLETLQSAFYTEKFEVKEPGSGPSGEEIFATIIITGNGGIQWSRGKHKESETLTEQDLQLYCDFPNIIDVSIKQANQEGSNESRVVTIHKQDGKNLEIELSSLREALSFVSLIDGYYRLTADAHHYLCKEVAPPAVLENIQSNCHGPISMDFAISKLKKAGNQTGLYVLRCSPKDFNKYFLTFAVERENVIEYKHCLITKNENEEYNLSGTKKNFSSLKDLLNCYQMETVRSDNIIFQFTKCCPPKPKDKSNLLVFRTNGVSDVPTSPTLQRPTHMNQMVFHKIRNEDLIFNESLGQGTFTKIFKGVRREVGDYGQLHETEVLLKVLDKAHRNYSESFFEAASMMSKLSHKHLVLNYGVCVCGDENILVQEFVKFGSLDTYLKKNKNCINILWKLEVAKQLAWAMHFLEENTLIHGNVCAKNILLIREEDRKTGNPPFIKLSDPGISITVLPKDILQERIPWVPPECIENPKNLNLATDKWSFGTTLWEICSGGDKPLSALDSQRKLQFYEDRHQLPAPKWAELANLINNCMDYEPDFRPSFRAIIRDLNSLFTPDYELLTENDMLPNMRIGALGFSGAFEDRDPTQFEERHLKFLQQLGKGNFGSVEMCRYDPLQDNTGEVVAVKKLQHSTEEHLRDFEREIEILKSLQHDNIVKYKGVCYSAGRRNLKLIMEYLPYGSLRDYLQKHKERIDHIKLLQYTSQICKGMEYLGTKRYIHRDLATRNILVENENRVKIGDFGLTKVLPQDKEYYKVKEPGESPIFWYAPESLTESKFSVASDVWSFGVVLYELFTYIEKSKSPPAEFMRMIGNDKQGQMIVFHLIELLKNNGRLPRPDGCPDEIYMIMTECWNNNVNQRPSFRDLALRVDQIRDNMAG
In short: as §1

[1] = Kinobeads assay, Molt4/Ramos lysate, read-out: TYK2 Band (Kinobeads assay potency, IC50)

| SMILES | IC50 (TYK2; [1]) [µM] | IC50 (JAK2) [µM] | IC50 (TYK2; read-out: TYK2 IC50) [µM] |
| --- | --- | --- | --- |
| CNC(=O)Cn1cc(Nc2ncc(Cl)c(NCc3cc(F)cc(C(F)(F)F)c3)n2)cn1 [Example I-189] | 0.1 to 1 | 1 to 10 |  |
| CS(=O)(=O)c1ccccc1CNc1nc(Nc2cnn(CC(N)=O)c2)ncc1F [Example I-436] | 0.1 to 1 | 1 to 10 |  |
| N#CCOc1cccc(CNc2nc(Nc3cnn(CC(N)=O)c3)ncc2Cl)c1 [Example I-362] | 0.1 to 1 | 1 to 10 |  |
| O=C(Cn1cc(Nc2nccc(NCc3c(F)cccc3Cl)n2)cn1)NCCF [Example I-140] | 0.01 to 0.1 | 1 to 10 |  |
| C[C@H](CO)NC(=O)Cn1cc(Nc2nccc(NCc3c(F)cccc3F)n2)cn1 [Example I-490] | 0.01 to 0.1 | 1 to 10 |  |
| OCCn1cc(Nc2ncc(F)c(NCc3cc(F)ccc3F)n2)cn1 [Example I-203] | ≤ 0.01 | 0.01 to 0.1 |  |
| N#CC1CN(C(=O)Cn2cc(Nc3ncc(Cl)c(NCc4ccccc4)n3)cn2)C1 [Example I-274] | 0.01 to 0.1 | 1 to 10 |  |
| Cc1cnc(Nc2cnn(CC(=O)N(C)C)c2)nc1NCc1c(F)ccc(F)c1F [Example I-422] | ≤ 0.01 | 0.1 to 1 |  |
| CNC(=O)Cn1cc(Nc2ncc(C)c(NCc3cc(F)cc(F)c3)n2)cn1 [Example I-354] | 0.1 to 1 | 0.1 to 1 |  |
| C[C@H](CO)NC(=O)Cn1cc(Nc2nccc(NCc3c(F)cncc3F)n2)cn1 [Example I-147] | 0.01 to 0.1 | > 10 |  |
| COc1ccc(Cl)c(CNc2ccnc(Nc3cnn(C)c3)n2)c1F [Example I-61] | 0.01 to 0.1 | 0.1 to 1 |  |
| Cn1cc(Nc2ncc(Cl)c(NCc3cncc(F)c3)n2)cn1 [Example I-258] | 0.1 to 1 | 0.1 to 1 |  |
| CCOc1ccc(F)c(CNc2nc(Nc3cn[nH]c3)ncc2Cl)c1F [Example I-368] | 0.01 to 0.1 | 1 to 10 |  |
| Cn1cc(Nc2ncc(Cl)c(NCc3cccnc3F)n2)cn1 [Example I-406] | 0.1 to 1 | 0.1 to 1 |  |
| CS(=O)(=O)c1ccccc1CNc1nc(Nc2cnn(CC(N)=O)c2)ncc1Cl [Example I-450] | 0.1 to 1 | 0.1 to 1 |  |
| Cc1noc(Cn2cc(Nc3ncc(Cl)c(NCc4c(F)cccc4F)n3)cn2)n1 [Example I-483] | 0.1 to 1 | 1 to 10 |  |
| NS(=O)(=O)c1ccc(CNc2nc(Nc3cnn(CC(=O)N4CCOCC4)c3)ncc2F)cc1 [Example I-11] | 0.01 to 0.1 | > 10 |  |
| CC1(C)COCCN1C(=O)Cn1cc(Nc2nccc(NCc3c(F)cc(F)cc3F)n2)cn1 [Example I-459] | 0.01 to 0.1 | > 10 |  |
| CS(=O)(=O)c1ccc(F)cc1CNc1nc(Nc2cnn(CCO)c2)ncc1F [Example I-488] | 0.01 to 0.1 | 0.1 to 1 |  |
| CC(C)NC(=O)Cn1cc(Nc2nccc(NCc3cccc(OC(F)F)c3)n2)cn1 [Example I-67] | 0.01 to 0.1 | > 10 | < 0.1 |
| CN(C)S(=O)(=O)c1ccccc1CNc1nc(Nc2cnn(C)c2)ncc1Cl [Example I-474] | 0.1 to 1 | 0.1 to 1 |  |
| COc1ccc(F)c(CNc2nc(Nc3cnn(CC(N)=O)c3)ncc2F)c1F [Example I-384] | 0.01 to 0.1 | 1 to 10 |  |
| CS(=O)(=O)c1ccccc1CNc1nc(Nc2cnn(CC(F)(F)F)c2)ncc1Cl [Example I-475] | 1 to 10 | > 10 |  |

| SMILES | IC50 (TYK2; [1]) [µM] | IC50 (JAK2) [µM] | IC50 (TYK2; read-out: TYK2 IC50) [µM] |
| --- | --- | --- | --- |
| Cn1cc(Nc2ncc(F)c(NCc3c(F)c(F)cc(F)c3F)n2)cn1 [Example I-462] | 0.1 to 1 | 1 to 10 |  |
| CC(C)NC(=O)Cn1cc(Nc2nccc(NCc3c(Cl)ccc(Cl)c3F)n2)cn1 [Example I-78] | ≤ 0.01 | 0.1 to 1 |  |
| OCCn1cc(Nc2ncc(Cl)c(NCc3ccccc3C(F)(F)F)n2)cn1 [Example I-191] | 0.1 to 1 | 1 to 10 |  |
| Cn1cc(Nc2ncc(F)c(NCc3cccc(F)c3F)n2)cn1 [Example I-177] | 0.1 to 1 | 1 to 10 |  |
| Cc1cccc(F)c1CNc1ccnc(Nc2cnn(C)c2)n1 [Example I-437] | 0.01 to 0.1 | 1 to 10 |  |
| CN(C)C(=O)Cn1cc(Nc2ncc(Cl)c(NCc3ccccc3)n2)cn1 [Example I-217] | 0.1 to 1 | 1 to 10 |  |
| CNS(=O)(=O)c1cccc(CNc2nc(Nc3cnn(C)c3)ncc2Cl)c1 [Example I-200] | 0.1 to 1 | 1 to 10 |  |
| Fc1cccc(CNc2nc(Nc3cn[nH]c3)ncc2Cl)c1C(F)(F)F [Example I-136] | 0.01 to 0.1 | 0.1 to 1 |  |
| Cc1cnc(Nc2cnn(CC(=O)N3CCOCC3)c2)nc1NCc1c(F)cc(F)cc1F [Example I-21] | ≤ 0.01 | 1 to 10 |  |
| Cc1cnc(Nc2cnn(CC(F)F)c2)nc1NCc1ccccc1S(C)(=O)=O [Example I-478] | 1 to 10 | > 10 |  |
| CC(C)(C)OC(=O)N1CC2(CN(C(=O)Cn3cc(Nc4ncc(Cl)c(NCc5ccccc5)n4)cn3)C2)C1 [Example I-220] | 0.1 to 1 | 1 to 10 |  |
| O=C(Cn1cc(Nc2nccc(NCc3c(F)cc(F)cc3F)n2)cn1)NC1CCOC1 (stereo not shown) [Example I-95] | 0.01 to 0.1 | 1 to 10 |  |
| O=C(Cn1cc(Nc2nccc(NCc3c(F)cc(F)cc3F)n2)cn1)N[C@H]1CCOC1 [Example I-138] | 0.01 to 0.1 | 1 to 10 |  |
| COc1ccc(F)c(CNc2ccnc(Nc3cnn(CC(=O)NC(C)C)c3)n2)c1F [Example I-65] | 0.01 to 0.1 | 1 to 10 | < 0.1 |
| Cc1cnc(Nc2cnn(CC(=O)NC3CC3)c2)nc1NCc1cc(F)cc(F)c1 [Example I-344] | 0.01 to 0.1 | 0.1 to 1 |  |
| CN(C)CCNC(=O)Cn1cc(Nc2ncc(Cl)c(NCc3ccccc3)n2)cn1 [Example I-221] | 0.1 to 1 | 0.1 to 1 |  |
| CC(C)NC(=O)Cn1cc(Nc2nccc(NCc3c(F)cncc3F)n2)cn1 [Example I-145] | ≤ 0.01 | > 10 |  |
| O=C(O)Cn1cc(Nc2ncc(Cl)c(NCc3ccccc3)n2)cn1 [Example I-222] | 0.1 to 1 | 1 to 10 |  |
| COc1c(F)cccc1CNc1nc(Nc2cnn(CC(=O)O)c2)ncc1Cl [Example I-403] | 0.1 to 1 | 1 to 10 |  |
| OCCn1cc(Nc2ncc(Cl)c(NCc3cccc(C(F)F)c3)n2)cn1 [Example I-293] | 0.1 to 1 | 0.1 to 1 |  |
| CC(O)Cn1cc(Nc2ncc(Cl)c(NCc3ccccc3)n2)cn1 (stereo not shown) [Example I-216] | 0.1 to 1 | 1 to 10 |  |
| CS(=O)(=O)c1cccc(CNc2nc(Nc3cnn(CCO)c3)ncc2Cl)c1 [Example I-363] | 0.1 to 1 | 1 to 10 |  |
| N#CCOc1cccc(CNc2nc(Nc3cnn(CC(=O)N4CCOCC4)c3)ncc2Cl)c1 [Example I-366] | 0.01 to 0.1 | 1 to 10 |  |

The remaining lines, values ahead:

| IC50 (TYK2; [1]) [µM] | IC50 (JAK2) [µM] | IC50 (TYK2; read-out: TYK2 IC50) [µM] | SMILES |
| --- | --- | --- | --- |
| 0.01 to 0.1 | 0.1 to 1 |  | COc1ccc(F)c(CNc2nc(Nc3cnn(C)c3)ncc2C)c1F [Example I-302] |
| 0.01 to 0.1 | 1 to 10 |  | CN(C)C(=O)Cn1cc(Nc2ncc(Cl)c(NCc3c(F)cc(F)cc3F)n2)cn1 [Example I-16] |
| 0.01 to 0.1 | > 10 |  | O=C(O)Cn1cc(Nc2ncc(F)c(NCc3cccc(OC(F)F)c3)n2)cn1 [Example I-425] |
| 0.1 to 1 | 1 to 10 |  | Cn1cc(Cn2cc(Nc3ncc(Cl)c(NCc4c(F)cccc4F)n3)cn2)cn1 [Example I-482] |
| 0.01 to 0.1 | > 10 |  | O=C(Cn1cc(Nc2ncc(F)c(NCc3c(F)cc(F)cc3F)n2)cn1)NCC(F)(F)F [Example I-252] |
| ≤ 0.01 | 1 to 10 |  | Cc1cnc(Nc2cnn(CC(=O)NC(C)C)c2)nc1NCc1c(F)cc(F)cc1F [Example I-32] |
| 1 to 10 | 1 to 10 |  | COc1c(F)cc(F)cc1CNc1nc(Nc2cnn(CC(F)(F)F)c2)ncc1C [Example I-352] |
| 0.1 to 1 | 1 to 10 |  | OCCn1cc(Nc2ncc(Cl)c(NCc3cccc(F)c3C(F)(F)F)n2)cn1 [Example I-333] |
| 0.01 to 0.1 | 0.01 to 0.1 |  | Cn1cc(Nc2ncc(Cl)c(NCc3cc(F)cc(F)c3)n2)cn1 [Example I-176] |
| ≤ 0.01 | 0.1 to 1 |  | Cc1cnc(Nc2cnn(CC(=O)N(C)C)c2)nc1NCc1c(F)cccc1F [Example I-299] |
| 1 to 10 | 1 to 10 |  | CNC(=O)Cn1cc(Nc2ncc(Cl)c(NCc3ccccc3S(C)(=O)=O)n2)cn1 [Example I-451] |
| ≤ 0.01 | 0.1 to 1 |  | COc1ccc(Cl)c(CNc2ccnc(Nc3cnn(CC(=O)N[C@H](C)CO)c3)n2)c1F [Example I-123] |
| 0.1 to 1 | 1 to 10 |  | N#C[C@@H]1CCCN1C(=O)Cn1cc(Nc2ncc(Cl)c(NCc3ccccc3)n2)cn1 [Example I-272] |
| 0.01 to 0.1 | 1 to 10 |  | CS(=O)(=O)c1cccc(CNc2nc(Nc3cnn(CC(=O)NC4CC4)c3)ncc2Cl)c1 [Example I-440] |
| 0.01 to 0.1 | 0.01 to 0.1 |  | O=C(Cn1cc(Nc2ncc(Cl)c(NCc3cc(F)cc(F)c3)n2)cn1)N1CCOCC1 [Example I-162] |
| 0.01 to 0.1 | 0.1 to 1 |  | Cn1cc(Nc2nccc(NCc3c(Cl)ccc(F)c3F)n2)cn1 [Example I-68] |
| 0.01 to 0.1 | 1 to 10 |  | O=C(Cn1cc(Nc2nccc(NCc3c(F)cc(F)cc3F)n2)cn1)NCCF [Example I-90] |
| 0.01 to 0.1 | 1 to 10 |  | CN(C)C(=O)Cn1cc(Nc2ncc(F)c(NCc3c(F)ccc(F)c3F)n2)cn1 [Example I-411] |
| 0.01 to 0.1 | 1 to 10 |  | NC(=O)Cn1cc(Nc2nccc(NCc3c(F)cc(F)cc3F)n2)cn1 [Example I-311] |
| 0.1 to 1 | 1 to 10 |  | CCNC(=O)c1cccc(CNc2nc(Nc3cnn(CCO)c3)ncc2Cl)c1 [Example I-241] |
| 0.1 to 1 | 1 to 10 |  | NS(=O)(=O)c1cccc(CNc2nc(Nc3cnn(CCO)c3)ncc2Cl)c1 [Example I-199] |
